Source: patent US20200392107A1, “CYCLIC AMINE DERIVATIVE AND MEDICAL USE THEREOF” (Toray Industries, Inc., priority 2018, published 2020)

Legend:
[1] = molecular target: T1, RORγ-LBD (GST-fused ligand-binding domain of RORγ) / coactivator TRAP220/DRIP-2 (Homo sapiens, UniProt P51449); assay: Inhibitory effect on RORγ-coactivator binding (LanthaScreen TR-FRET RORγ Coactivator Assay); format: biochemical; settings: at 33 μmol/L of the test compound; read-out: RORγ-coactivator binding inhibition rate (%)
T1 construct: purchased Invitrogen
T1 sequence (P51449 269-508 limits assumed): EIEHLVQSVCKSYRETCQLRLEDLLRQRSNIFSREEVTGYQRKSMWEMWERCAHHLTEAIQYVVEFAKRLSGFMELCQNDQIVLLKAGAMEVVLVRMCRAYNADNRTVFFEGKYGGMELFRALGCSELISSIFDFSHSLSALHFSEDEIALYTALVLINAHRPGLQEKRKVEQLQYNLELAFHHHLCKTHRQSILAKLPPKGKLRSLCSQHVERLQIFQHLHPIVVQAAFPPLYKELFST
Protocol: The inhibitory effect of the cyclic amine derivative (I) or a pharmacologically acceptable salt thereof on the binding between a ligand-binding domain of RORγ (hereinafter referred to as RORγ-LBD) and a coactivator was evaluated using Invitrogen's LanthaScreen™ TR-FRET Retinoid-Related Orphan Receptor (ROR) gamma Coactivator Assay kit utilizing time-resolved fluorescence energy transfer (TR-FRET).
A test compound was dissolved in DMSO and diluted with TR-FRET Coregulator Buffer D (Invitrogen) containing 5 mmol/L of DTT to have a final DMSO concentration of 1% before use. To each well of a 384-well black plate (Corning Inc.), 4 nmol/L of GST-fused RORγ-LBD (Invitrogen) diluted with the buffer mentioned above and the test compound were added. A well without addition of the test compound and without addition of GST-fused RORγ-LBD (background) and a well without addition of the test compound and with addition of GST-fused RORγ-LBD (control) were prepared. Next, 150 nmol/L of fluorescein-labeled TRAP220/DRIP-2 (Invitrogen) diluted with the buffer mentioned above and 32 nmol/L of terbium-labeled anti-GST antibody (Invitrogen) were added to each well. After incubating the plate at room temperature for 16 to 24 hours, the fluorescence at 495 nm and 520 nm when excited at 320 nm was measured for each well and the ratio (fluorescence value at 520 nm/fluorescence value at 495 nm) was calculated.
The fold change with addition of the test compound (ratio with addition of the test compound/ratio of the background), the fold change of the control (ratio of the control/ratio of the background), and the fold change of the background (ratio of the background/ratio of the background) were calculated, and then the inhibition rate of binding between RORγ-LBD and a coactivator (hereinafter referred to as RORγ-coactivator binding inhibition rate) (%) was calculated from Formula (1):
RORγ-coactivator binding inhibition rate (%)=(1−((Fold change with addition of the test compound)−(Fold change of the background))/((Fold change of the control)−(Fold change of the background)))×100 (1).

[2] = test system: IL-17 production in mouse splenocytes; assay: Suppressive effect on IL-17 production by IL-23 stimulation in mouse splenocytes; format: cell-based; settings: Splenocyte, 72 h, at 5 μmol/L of the test compound, human IL-23 10 ng/mL, cultured 3 days, read-out: IL-17 production inhibition rate (%)
Protocol: Using mouse splenocytes, the suppressive effect of the cyclic amine derivative (I) or a pharmacologically acceptable salt thereof on IL-17 production by IL-23 stimulation was evaluated by a partially modified method mentioned in The Journal of Biological Chemistry, 2003, Vol. 278, No. 3, p. 1910-1914.
A single cell suspension was prepared from the spleen of C57BL/6J mice (male or female, 6 to 30 weeks old) (Charles River Laboratories Japan, Inc. or CLEA Japan, Inc.) and splenocytes were prepared using Histopaque-1083 (Sigma-Aldrich Japan). The culture medium was used by adding 10% FBS (Gibco), 50 U/mL of penicillin-50 μg/mL of streptomycin (Gibco), 50 μmol/L of 2-mercaptoethanol (Gibco), and 100 U/mL of human IL-2 (Cell Science & Technology Institute, Inc.) to RPMI1640 medium (Gibco). A test compound was dissolved in DMSO and then diluted with the culture medium to have a final concentration of DMSO of 0.1% before use. Splenocytes (3×10^5 cells/well) prepared in the culture medium were seeded in wells of a 96-well flat-bottom plate (Corning Incorporated), the test compound and 10 ng/mL of human IL-23 (R & D systems, Inc.) were added thereto, and the cells were cultured at 37° C. under 5% CO2 for 3 days. A well without addition of human IL-23 and without addition of the test compound and a well with addition of human IL-23 and without addition of the test compound were prepared. After completion of the culture, the culture supernatant was collected and the IL-17 production amount in the supernatant was determined by ELISA method (R & D systems, Inc.).
The IL-17 production inhibition rate (%) was calculated from Formula (2).
IL-17 production inhibition rate (%)=(1−((IL-17 production amount with addition of IL-23 and with addition of the test compound)−(IL-17 production amount without addition of IL-23 and without addition of the test compound))/((IL-17 production amount with addition of IL-23 and without addition of the test compound)−(IL-17 production amount without addition of IL-23 and without addition of the test compound)))×100 (2).

SMILES | inhibition at 33 µM [1] | inhibition at 5 µM [2]
CC(=O)N1CCCC[C@@H]1C(=O)Nc1ccc2c(c1)CCCN2Cc1ccc(C(F)(F)F)cc1 [Example 2, (R)-1-acetyl-N-(1-(4-(trifluoromethyl)benzyl)-1,2,3,4-tetrahy-droquinolin-6-yl)piperidine-2-carboxamide] | 94.3% | 98.4%
CC(=O)N1CCCC[C@@H]1C(=O)Nc1cc(Cl)c2c(c1)CCN(Cc1ccc(C(F)(F)F)cc1)C2 [Example 3, (R)-1-acetyl-N-(8-chloro-2-(4-(trifluoromethyl)benzyl)-1,2,3,4-tetrahydroisoquinolin-6-yl)piperidine-2-carboxamide] | 99.5% | 99.7%
CC(=O)N1CCCC[C@@H]1C(=O)Nc1cc(Cl)c2c(c1)CCN2Cc1cccc(C(F)(F)F)c1 [Example 5, (R)-1-acetyl-N-(7-chloro-1-(3-(trifluoromethyl)benzyl)indolin-5-yl)piperidine-2-carboxamide] | 87.9% | 87.5%
CC(=O)N1CCCC[C@@H]1C(=O)Nc1cc(Cl)c2c(c1)CCN2Cc1ccccc1C(F)(F)F [Example 6, (R)-1-acetyl-N-(7-chloro-1-(2-(trifluoromethyl)benzyl)indolin-5-yl)piperidine-2-carboxamide] | 85.2% | 91.6%
CC(=O)N1CCCC[C@@H]1C(=O)Nc1cc(Cl)c2c(c1)CCN2CCc1ccc(C(F)(F)F)cc1 [Example 7, (R)-1-acetyl-N-(7-chloro-1-(4-(trifluoromethyl)phenethyl)indolin-5-yl)piperidine-2-carboxamide] | 96% | 98.6%
CC(=O)N1CCCC[C@@H]1C(=O)Nc1cc(Cl)c2c(c1)CCN2Cc1ccc(OC(F)(F)F)cc1 [Example 8, (R)-1-acetyl-N-(7-chloro-1-(4-(trifluoromethoxy)benzyl)in-dolin-5-yl)piperidine-2-carboxamide] | 99.4% | 100%
CC(=O)N1CCCCC1C(=O)Nc1cc(Cl)c2c(c1)CCN2Cc1ccc(C(F)(F)F)cc1 (centres unmarked) [Example 10, 1-acetyl-N-(7-chloro-1-(4-(trifluoromethyl)benzyl)indolin-5-yl)piperidine-2-carboxamide] | 99.8% | 99.5%
